Entries after “also recorded” stand apart in the source; their conditions may differ. Like-named read-outs stand apart in the source and are kept apart here.
What was measured:
[1] = Evaluation of transferability to posterior eye segment in rats (V); type: in vivo, SD rats; conditions: ophthalmic suspension formulations, eyedrops 5 μL for one eye once; 60 minutes after administration
Description: To both eyes of SD rats, ophthalmic formulation I, ophthalmic formulation F, ophthalmic formulation G, ophthalmic formulation X1, ophthalmic formulation X2, ophthalmic formulation Y1, or ophthalmic formulation Y2 was administered in eyedrops in the amount of 5 μL for one eye once. 60 minutes after the administration, each concentration of Compound A in retina was measured.

[2] = system: VEGF production in retina; conditions: oral repetitive administration, SDT rats; cited from earlier work
aldose reductase = aldose reductase (Homo sapiens, UniProt P15121); assay: AR inhibitory action; type: biochemical
[3] = Evaluation of transferability to posterior eye segment in rats (I-1) and (I-2); type: in vivo; conditions: SDT, rat, oral repetitive administration 1.0 mg/kg once a day for 21 days, 60 minutes after final administration
Description: To both eyes of rat model of diabetes, ophthalmic suspension formulation A1 wherein Compound A was suspended in a generally-tolerated dose as a suspension formulation (200 mg/mL) or ophthalmic solution formulation Z wherein Compound A was dissolved (400 μg/mL) was administered in eyedrops in the amount of 5 μL for one eye (which is a maximum tolerated dose for eyedrops in rats) totally 5 times at intervals of 5 minutes. 60 minutes after the administration, each concentration of Compound A in cornea, retina and plasma was measured.
Eyedrop has a limitation about tolerated volume of one shot, which is different from other dosage forms. Thus, the delivery amount of the drug to the target tissue which is obtained from eyedrop of a maximum tolerated dose is important. The tolerated volume varies depending on animal species, and the maximum volume in rats is 5 μL for one eye. […]
In addition, Diabetic Retinopathy, INTECH, Chapter 15 “Prophylactic Medical Treatment of Diabetic Retinopathy”, Akihiro Kakehashi et al. disclose an experiment of oral repetitive administration of Compound A to SDT rats, wherein the dose of Compound A making the retinal capillary weakened and the VEGF production in retina inhibited is 1.0 mg/kg. […] 60 minutes after the final administration, each concentration of Compound A in cornea, retina and plasma was measured.

[4] = system: normal human retinal capillary endothelial cell (HREC); assay: Cell migration assay: inhibition of facilitatory action of cell migration by VEGF stimulation; type: cell-based
Description: The anti-VEGF action of Compound A was evaluated by an experimental method (cell migration assay) described in J Diabetes Complications. 2012; 26(5):369-77. In the experiment, a normal human retinal capillary endothelial cell (HREC) which was obtained from Cell System Co., LTD. was used, and a cell culture used herein was CS-C medium (Cell System Co., LTD.). […] As for Lucentis, its formulation stock solution was diluted with the cell culture, wherein the dilution ratio was 50 μL of the formulation stock solution per 4 mL of the cell culture, and the diluted solution was used in the experiment. The HREC was seeded in 6-well plate, and it was incubated until the confluency became 80-90%. 20-24 hours before assaying the cell migration by the VEGF stimulation, the cell culture was changed to a cell culture containing 0.1% fetal bovine serum. Then, the culture cell monolayer was wounded with a 200 μL pipette tip at one point per well, and the width of the wounds were measured with a microscope. […] About 18 hours after changing the cell culture, each width of the wounds was measured with a microscope, and the anti-VEGF action was evaluated by comparing the width with that of the just-wounded one.

O=C1C[C@@]2(C(=O)N1)C(=O)N(Cc1ccc(Br)cc1F)C(=O)c1cccn12 [Compound A, (R)-(−)-2-(4-bromo-2-fluorobenzyl)-1,2,3,4-tetrahydropyrrolo[1,2-a]pyrazine-4-spiro-3′-pyrrolidine-1,2′,3,5′-tetrone]
delivery to retina [1]: delivered to retina much more than the ophthalmic suspension formulation comprising Compound B or C | oral dose making the retinal capillary weakened and the VEGF production in retina inhibited [2]: 1.0 mg/kg | Ki (aldose reductase): 0.23 nM | AR inhibitory action, action ratio relative to Compound A (aldose reductase; figure in brackets): 1.0 × | Kp at 60 min ([3]; cornea and plasma (cornea/plasma ratio), read-out: concentration ratio cornea to plasma (plasma:cornea:retina, plasma = 1)): ~1 | Kp at 60 min ([3]; retina and plasma (retina/plasma ratio), po, 1 mg/kg, read-out: retina/plasma ratio): ~1 | action inhibiting the HREC migration, comparison ([4]; 1 nM Compound A, VEGF stimulation, about 18 hours): in the same level as that of 100 nM ((28 ng/mL)/L) Compound C; also recorded: more potent than that of 1000 nM ((320 ng/mL)/L) Compound B; also recorded: in the same level as Lucentis

CC(/C=C1\SC(=S)N(CC(=O)O)C1=O)=C\c1ccccc1 [Compound B, [5-[(1Z,2E)-2-methyl-3-phenylallylidene]-4-oxo-2-thioxothiazolidin-3-yl]acetic acid]
delivery to retina [1]: hardly delivered to retina

NC(=O)[C@@H]1C[C@]2(NC(=O)NC2=O)c2cc(F)ccc2O1 [Compound C, (2S,4S)-6-fluoro-2′,5′-dioxospiro[chroman-4,4′-imidazolidine]-2-carboxamide]
delivery to retina [1]: hardly delivered to retina

B1: Lucentis: anti-VEGF antibody formulation (general name: ranibizumab) (antibody, chains of the INN, looked up, V domains shown)
VH: EVQLVESGGGLVQPGGSLRLSCAASGYDFTHYGMNWVRQAPGKGLEWVGWINTYTGEPTYAADFKRRFTFSLDTSKSTAYLQMNSLRAEDTAVYYCAKYPYYYGTSHWYFDVWGQGTLVTVSS
VL: DIQLTQSPSSLSASVGDRVTITCSASQDISNYLNWYQQKPGKAPKVLIYFTSSLHSGVPSRFSGSGSGTDFTLTISSLQPEDFATYYCQQYSTVPWTFGQGTKVEIK
inhibition of HREC migration facilitated by VEGF stimulation ([4]; about 18 hours after changing the cell culture): inhibited the migration
